Earlier results in US6730664B1, “Formulations for parenteral use of estramustine phosphate and sulfoalkyl ether cyclodextrins” (Pharmacia Italia S.p.A., priority 1999, dated 2004).

Conditions: patients, slow intravenous injection or bolus, 300 mg/day

Compound: C[C@]12CC[C@@H]3c4ccc(OC(=O)N(CCCl)CCCl)cc4CC[C@H]3[C@@H]1CC[C@@H]2OP(=O)(O)O [estramustine phosphate, Estramustine phosphate]
- side effects at the peripheral intravenous injection sites: thrombophlebitis and local irritations
